Source: article PMC9714921 (PLOS Pathogens, 2022)

Assays:
[1] = system: P. equorum N-AChR; conditions: read-out: EC50 μM ACh; accessory protein Ric-3; ref [40]; cited from earlier work
[2] = system: ASU-ICL (A. suum ICL in Tzc-ACR-16); experiment: Voltage-clamp electrophysiology, A. suum/T. callipaeda ACR-16 chimera in oocytes; assay type: cell-based; conditions: S2C Fig
Protocol: (§1) B. malayi acr-16 and accessory proteins ric-3, unc-50, unc-74 and molo-1 were cloned from adult female B. malayi cDNA received as a gift from Dr. T. Geary using the primers described in S1 Table. B. malayi eat-18 was prepared from two overlapping oligonucleotide primers. Other subunits were synthesized from their predicted genome sequence (Gene Universal, USA) (S2 Table). […] All sequences were cloned into the pTD2 oocyte expression vector. Asu-ACR-16 and Tzc-ACR-16 chimeras were constructed using appropriate restriction enzymes, reciprocal exchange through ligation and confirmed by sequencing (McLab, USA).
(§2) cRNA for oocyte injection was prepared with the mMESSAGE mMACHINE T7 kit following manufacturers protocol (Ambion, USA). Concentration was determined using a Nanodrop spectrophotometer. Desired subunit combinations with associated accessory proteins were mixed and diluted with nuclease-free water to a final concentration of 250 ng/uL for each construct.
(§3) Adult female X. laevis oocyte extraction was performed in accordance with the McGill University Animal Use Protocol 2015–7758 following standard protocol. Briefly, frog ovary lobes were placed in a Ca^2+-free OR2 solution (82 mM NaCl, 2 mM KCl, 1 mM MgCl2, 5 mM HEPES buffer, pH 7.3) and manually divided into clusters of <10 oocytes with thin tweezers followed by a 90-minute incubation in 10 mg/mL collagenase type II (Sigma-Aldrich, USA). Oocytes were washed in Ca^2+-free OR2 and placed ND96 solution (NaCl 96 mM, KCl 2 mM, CaCl2 1.8 mM, MgCl2 1 mM and HEPES 5 mM, pH 7.3) supplemented with sodium pyruvate 2.5 mM [86] and incubated at 18°C until cRNA injection. Oocytes were injected with 50 nL (12.5 ng of each injected gene) of the desired cRNA subunit and accessory protein combination mix with the NanojectII (Drummond Scientific, USA). Following injection, oocytes were incubated in ND96 buffer at 18°C until electrophysiology. All electrophysiology was conducted two days post-injection, except for the expression analysis assay in which oocytes were measured every day after injection for three consecutive days.
(§4) All drugs were dissolved in recording solution (NaCl 100 mM, KCl 2.5 mM, CaCl2 1 mM, HEPES 5 mM, pH 7.3) to a stock concentration of 10 mM and diluted to their final recording concentrations. Oxantel and bephenium were first dissolved in DMSO to ensure a final recording concentration contained less than 0.1% DMSO. For agonist profiling, all drugs were diluted to a concentration of 100 μM.
(§5) Oocytes were placed individually in an RC3Z chamber (Harvard Apparatus, USA) submerged in recording solution (NaCl 100 mM, KCl 2.5 mM, CaCl2 1 mM, HEPES 5 mM, pH 7.3). The RC3Z chamber was connected to a perfusion system containing recording solution and ligand solutions. Pulled glass capillaries (World Precision Instruments, USA) were filled with 3M KCl and the tips clipped and checked for appropriate resistance (between 0.5 and 5 MΩ). A 3M KCl agar bridge grounded the oocyte bath chamber. Measurements were made using an Axon Axoclamp 900A amplifier with Digidata1550M. […] Ligand solutions were applied to the oocytes with an approximate flow rate of 1.2 m/s and current responses measured. Oocytes were exposed to the ligand solution until a distinct current peak was observed followed by a wash with the recording solution until current returned to baseline for a minimum of 10 seconds until the next ligand exposure. For BAPTA-AM exposed oocytes, oocytes were incubated in 100 μM BAPTA-AM for four hours prior to electrophysiology recording. Data was analyzed using Clampex 9.2 (Axon Instruments, USA) and statistical analysis and graphs produced in Prism (GraphPad version 9.1). T-tests were used to compare responses with error bars representing standard error. For concentration-response curves, individual oocyte current response to the different ligand concentrations were normalized to the response obtained with 300 μM.

[3] = system: TZC-TM (Tzc-TM region in A. suum ACR-16); experiment: as above; assay type: cell-based; conditions: S2C Fig
Protocol: as §1, §2, §3, §4, §5

[4] = system: TZC-ICL (T. callipaeda ICL in Asu-ACR-16); experiment: as above; assay type: cell-based; conditions: S2C Fig
Protocol: as §1, §2, §3, §4, §5

[5] = system: ASU-TM (A. suum TM regions in Tzc-ACR-16); experiment: as above; assay type: cell-based; conditions: S2C Fig
Protocol: as §1, §2, §3, §4, §5

[6] = system: ASU-ECD (A. suum ECD in Tzc-ACR-16); experiment: as above; assay type: cell-based; conditions: S2C Fig
Protocol: as §1, §2, §3, §4, §5

[7] = system: Tzc-ACR-16-REM; experiment: Voltage-clamp electrophysiology, coding-sequence modified ACR-16 in oocytes; assay type: cell-based, T. callipaeda; conditions: B. malayi ric-3 co-injected; agonist not named in the legend (ACh by the matching native values)
Protocol: as §1, §2
(§6) Adult female X. laevis oocyte extraction was performed in accordance with the McGill University Animal Use Protocol 2015–7758 following standard protocol. […] All electrophysiology was conducted two days post-injection, except for the expression analysis assay in which oocytes were measured every day after injection for three consecutive days. […]

[8] = system: Asu-ACR-16-REM; experiment: as above; assay type: cell-based, A. suum; conditions: B. malayi ric-3 co-injected; agonist not named in the legend (ACh by the matching native values)
Protocol: as §1, §2, §6

CC(=O)OCC[N+](C)(C)C [ACh, acetylcholine]
EC50 [1]: 6.4 ± 0.6 µM
response to ACh [2]: 2237 ± 98 nA
response to ACh [3]: 2917 ± 105 nA
response to ACh [4]: 1959 ± 78 nA
response to ACh [5]: 24 ± 8 nA
response to ACh [6]: 1819 ± 115 nA
current response [7]: 587 ± 415 nA
current response [8]: 2197 ± 383 nA
